In one assay the test system is Alopecurus myosuroides. Kind of assay: pre-emergence greenhouse test, ALOMY. The format is in vivo. The following applies: Alopecurus myosuroides, 50 g ai/ha, read-out: observed % activity. An excerpt:
(§1) For the pre-emergence treatment, directly after sowing the active compounds, which had been suspended or emulsified in water, were applied by means of finely distributed nozzles. The containers were irrigated gently to promote germination and growth and subsequently covered with transparent plastic hoods until plant had rooted. This cover caused uniform germination of the tests plants, unless this was adversely affected by active compounds.
(§2) The respective herbicides A and/or safener were formulated as 10% by weight strength suspension concentrate and introduced to the spray liquor with the amount of solvent system used for applying the active compound. Herbicide B and/or safener were used as commercially available formulations and introduced to the spray liquor with the amount of solvent system used for applying the active compound. In the examples, the solvent used was water.
(§3) The test period extended over 21 days. During this time, the plants were tended, and their response to the treatments with active compound was evaluated.
(§4) The evaluation for the damage caused by the chemical compositions was carried out using a scale from 0 to 100%, compared to the untreated control plants. Here, 0 means no damage and 100 means complete destruction of the plants.

Another assay relates to Ambrosia artemisifolia. Kind of assay: pre-emergence greenhouse test, AMBEL. The format is in vivo. Particulars: Ambrosia, read-out: observed % activity; for inhibition at 25 g/ha: 25 g ai/ha; for inhibition at 50 g/ha: 50 g ai/ha.
From the text: as §1, §2, §3, §4

Another assay relates to Matricaria inermis. Kind of assay: pre-emergence greenhouse test, MATIN. It counts as in vivo. Particulars: Matricaria, read-out: observed % activity; for inhibition at 25 g/ha: 25 g ai/ha; for inhibition at 50 g/ha: 50 g ai/ha.
From the text: as §1, §2, §3, §4

Another assay concerns Setaria lutescens. Kind of assay: post-emergence greenhouse test, SETLU. The following applies: Setaria pumila, 13 g ai/ha, read-out: observed % activity. The format is in vivo.
From the text: (§5) For the post-emergence treatment, the test plants were first grown to a height of 3 to 20 cm, depending on the plant habit, and only then treated. Here, the herbicidal compositions were suspended or emulsified in water as distribution medium and sprayed using finely distributing nozzles.
as §2, §3, §4

For a further assay, the system named is Xanthium strumarium. As to the kind of experiment: post-emergence greenhouse test, XANST. It counts as in vivo. The following applies: Xanthium strumarium, read-out: observed % activity; for inhibition at 13 g/ha: 13 g ai/ha; for inhibition at 25 g/ha: 25 g ai/ha; for inhibition at 100 g/ha: 100 g ai/ha.
From the text: as §5, §2, §3, §4

For another assay, the system named is Kochia scoparia. Kind of assay: post-emergence greenhouse test, KCHSC. The format is in vivo. The following applies: Bassia scoparia, read-out: observed % activity; for inhibition at 13 g/ha: 13 g ai/ha; for inhibition at 100 g/ha: 100 g ai/ha.
From the text: as §5, §2, §3, §4

The next assay deals with harmful plants. Particulars: known from Y. Yamaji et al., 2006; cited from earlier work.

Read-outs that look alike come from different tables or passages of the source.

On to `Cn1nc(C(F)(F)F)c(CS(=O)(=O)C2=NOC(C)(C)C2)c1OC(F)F` [pyroxasulfone, 3-[5-(difluoromethoxy)-1-methyl-3-(trifluoromethyl)pyrazol-4-ylmethylsulfonyl]-4,5-dihydro-5,5-dimethyl-1,2-oxazole], for which the inhibition at 50 g/ha came out at 90% in the assay with Alopecurus myosuroides (192 h, 8 DAT); 98% with Alopecurus myosuroides (480 h, 20 DAT); 50% with Ambrosia artemisifolia (192 h, 8 DAT); 80% in the assay with Ambrosia artemisifolia (480 h, 20 DAT); 20% with Matricaria inermis (192 h, 8 DAT); 85% in the assay on Matricaria inermis (480 h, 20 DAT). Besides, the inhibition at 25 g/ha in the assay with Ambrosia artemisifolia (192 h, 8 DAT) is 40%; in the assay with Ambrosia artemisifolia (480 h, 20 DAT), 65%; in the assay with Matricaria inermis (192 h, 8 DAT), 0%; in the assay on Matricaria inermis (480 h, 20 DAT) it was 60%; in the assay on Xanthium strumarium (192 h, 8 DAT), 20%; in the assay on Xanthium strumarium (480 h, 20 DAT) it was 25%. Also, the inhibition at 13 g/ha with Setaria lutescens (192 h, 8 DAT) came out at 0%; with Setaria lutescens (480 h, 20 DAT) it was 65%; with Xanthium strumarium (192 h, 8 DAT), 0%; in the assay on Xanthium strumarium (480 h, 20 DAT), 0%; in the assay on Kochia scoparia (192 h, 8 DAT), 60%; with Kochia scoparia (480 h, 20 DAT), 50%. For the same compound, the inhibition at 100 g/ha turned out to be 25% in the assay on Xanthium strumarium (192 h, 8 DAT); 55% in the assay on Xanthium strumarium (480 h, 20 DAT); 60% with Kochia scoparia (192 h, 8 DAT); 70% in the assay on Kochia scoparia (480 h, 20 DAT). Further, in the assay on harmful plants, the post-emergence activity result is reported as “poor”.

The values above are taken from patent publication US20110015068A1, “Herbicidal Compositions Comprising Pyroxasulfone V” (BASF SE, priority 2008, published 2011).
